Assay results published in ChEMBL document CHEMBL3044990, “Synthesis and Insecticidal Activity of 5-Dimethylamino-1, 3dithianes” (1991).
Values after ≈ are worked out from the molar mass of the structure shown.

Experiments:
Assay type in all cases: functional
Tetranychus urticae = assay: Insecticidal activity against Tetranychus urticae (two-spotted spider mite) in kidney bean plant leaf assessed as mortality at 500 ppm after 2 days; conditions: 48 h
[1] = tested on: Henosepilachna vigintioctopunctata; assay: Insecticidal activity against third-instar larvae of Henosepilachna vigintioctopunctata assessed as mortality after 2 days; conditions: 48 h
Laodelphax striatellus = assay: Insecticidal activity against 3rd instar larva of Laodelphax striatella (small brown planthopper) assessed as mortality at 50 ppm after 6 days; conditions: 144 h
Chilo suppressalis = assay: Insecticidal activity against 5th instar larva of Chilo suppressalis assessed as mortality at 50 ug/g after 48 hr

Structure (SMILES) | mortality at 500 ppm (Tetranychus urticae) | LC50 [1] | mortality at 50 ppm (Laodelphax striatellus) | mortality (Chilo suppressalis)
CN(C)C1CSC(C#N)(c2ccccc2)SC1 (stereo unspecified) | 10% | 200 µg/mL (≈ 756 µM) | 15% | 100%
CN(C)C1CSC(C#N)(c2ccc(F)cc2)SC1 (stereo unspecified) | 100% | 130 µg/mL (≈ 460 µM) | 15% | 100%
CN(C)C1CSC(C#N)(c2ccc(Cl)cc2)SC1 (stereo unspecified) | 100% | 120 µg/mL (≈ 402 µM) | 75% | 100%
CN(C)C1CSC(C#N)(c2ccc(Br)cc2)SC1 (stereo unspecified) | 100% | 25 µg/mL (≈ 72.8 µM) | 100% | 100%
CN(C)C1CSC(C#N)(c2ccc([N+](=O)[O-])cc2)SC1 (stereo unspecified) | 60% | 18 µg/mL (≈ 58.2 µM) | 95% | 100%
CN(C)C1CSC(C#N)(c2ccc(N)cc2)SC1 (stereo unspecified) | 100% | 25 µg/mL (≈ 89.5 µM) | 45% | 100%
COc1ccc(C2(C#N)SCC(N(C)C)CS2)cc1 (stereo unspecified) | 100% | 35 µg/mL (≈ 119 µM) | 20% | 100%
Cc1ccc(C2(C#N)SCC(N(C)C)CS2)cc1 (stereo unspecified) | 100% | 25 µg/mL (≈ 89.8 µM) | 85% | 100%
CN(C)C1CSC(C#N)(c2cccc(F)c2)SC1 (stereo unspecified) | 100% | 18 µg/mL (≈ 63.7 µM) | 85% | 100%
CN(C)C1CSC(C#N)(c2cccc(Cl)c2)SC1 (stereo unspecified) | 80% | 10 µg/mL (≈ 33.5 µM) | 85% | 100%
CN(C)C1CSC(C#N)(c2cccc(Br)c2)SC1 (stereo unspecified) | 100% | 15 µg/mL (≈ 43.7 µM) | 70% | 100%
CN(C)C1CSC(C#N)(c2cccc([N+](=O)[O-])c2)SC1 (stereo unspecified) | 100% | 15 µg/mL (≈ 48.5 µM) | 70% | 100%
CN(C)C1CSC(C#N)(c2cccc(C(F)(F)F)c2)SC1 (stereo unspecified) | 100% | 18 µg/mL (≈ 54.1 µM) | 95% | 100%
Cc1cccc(C2(C#N)SCC(N(C)C)CS2)c1 (stereo unspecified) | 80% | 120 µg/mL (≈ 431 µM) | 30% | 100%
CN(C)C1CSC(C#N)(c2ccccc2F)SC1 (stereo unspecified) | 100% | 15 µg/mL (≈ 53.1 µM) | 55% | 100%
CN(C)C1CSC(C#N)(c2ccccc2Cl)SC1 (stereo unspecified) | 100% | 15 µg/mL (≈ 50.2 µM) | 95% | 100%
CN(C)C1CSC(C#N)(c2ccccc2Br)SC1 (stereo unspecified) | 100% | 10 µg/mL (≈ 29.1 µM) | 85% | 100%
CN(C)C1CSC(C#N)(c2ccccc2[N+](=O)[O-])SC1 (stereo unspecified) | 70% | 19 µg/mL (≈ 61.4 µM) | 85% | 100%
COc1ccccc1C1(C#N)SCC(N(C)C)CS1 (stereo unspecified) | 100% | 30 µg/mL (≈ 102 µM) | 20% | 100%
Cc1ccccc1C1(C#N)SCC(N(C)C)CS1 (stereo unspecified) | 60% | 100 µg/mL (≈ 359 µM) | 20% | 100%
CN(C)C1CSC(C#N)(c2ccc(Cl)c(Cl)c2)SC1 (stereo unspecified) | 50% | 12 µg/mL (≈ 36 µM) | 40% | 100%
CN(C)C1CSC(C#N)(c2c(Cl)cccc2Cl)SC1 (stereo unspecified) | 80% | 15 µg/mL (≈ 45 µM) | 99% | 100%
CN(C)C1CSC(C#N)(c2cc(Cl)cc(Cl)c2)SC1 (stereo unspecified) | 100% | 133 µg/mL (≈ 399 µM) | 55% | 100%
CN(C)C1CSC(C#N)(c2cc(F)ccc2F)SC1 (stereo unspecified) | 100% | 30 µg/mL (≈ 99.9 µM) | 30% | 100%
